# Reference: patent publication US20100016590A1, “NILOTINIB INTERMEDIATES AND PREPARATION THEREOF” (TEVA PHARMACEUTICAL INDUSTRIES LTD., priority 2008, published 2010)
# Counter-ions that a name gives are not always drawn.
# Test: Humidifying Nilotinib.3HCl: water content measured at regular intervals in a closed glass container with saturated potassium chloride solution
# Assay type: physicochemical
# Settings: for water content (M/C) After 72 Hrs: after 72 Hrs in closed container over saturated potassium chloride solution; for water content (M/C) After 72 Hrs / water content (M/C) After 96 Hrs / M/C Initial (water content): tri hydrochloride; for water content (M/C) After 96 Hrs: after 96 Hrs in closed container over saturated potassium chloride solution; for M/C Initial (water content): before humidifying
# Protocol: Weight 4.0 gms (having HPLC purity is 90%) Crude Nilotinib Tri hydrochloride in dry Petri dish and placed in to closed glass container containing (saturated Potassium chloride solution) at 20 to 25 temperature, the water content of crude Nilotinib was measured by regular interval.
# Weight 4.0 gms (having HPLC purity is 97.91%) Pure Nilotinib Tri hydrochloride in dry Petri dish and placed in to closed glass container containing (saturated Potassium chloride solution) at 20 to 25 temperature, the water content of Pure Nilotinib was measured by regular interval.
SMILES,"water content (M/C) After 24 Hrs (after 24 Hrs in closed container over saturated potassium chloride solution, 20 to 25 temperature)","water content (M/C) After 48 Hrs (after 48 Hrs in closed container over saturated potassium chloride solution, 20 to 25 temperature)",water content (M/C) After 72 Hrs (20 to 25 temperature),water content (M/C) After 96 Hrs (20 to 25 temperature),"water content (M/C) After 120 Hrs (after 120 Hrs in closed container over saturated potassium chloride solution, 20 to 25 temperature)",M/C Initial (water content)
"Cc1cn(-c2cc(NC(=O)c3ccc(C)c(Nc4nccc(-c5cccnc5)n4)c3)cc(C(F)(F)F)c2)cn1 [Nilotinib.3HCl (crude), 3-(4-(pyridin-3-yl)pyrimidin-2-ylamino)-N-(3-(trifluoromethyl)-5-(4-methyl-1H-imidazol-1-yl)phenyl)-4-methylbenzamide tri hydrochloride]",16.33%,16.89%,16.40%,16.36%,16.53%,4.31%
"Cc1cn(-c2cc(NC(=O)c3ccc(C)c(Nc4nccc(-c5cccnc5)n4)c3)cc(C(F)(F)F)c2)cn1 [Nilotinib.3HCl (Pure), 3-(4-(pyridin-3-yl)pyrimidin-2-ylamino)-N-(3-(trifluoromethyl)-5-(4-methyl-1H-imidazol-1-yl)phenyl)-4-methylbenzamide tri hydrochloride]",,,14.90%,14.41%,,4.55%
